Series [1] deals with Acetylcholinesterase (Electrophorus electricus, UniProt O42275). Kind of series: Inhibition of electric eel AChE using acetylthiocholine iodide as substrate preincubated for 20 mins followed by substrate addition and measured every minute for 10 mins by DTNB-reagent based Ellman's method.
In series [2] the target is T1, Cholinesterase (Equus caballus, UniProt P81908). Kind of series: Inhibition of equine serum BChE using S-butyrylthiocholine iodide as substrate preincubated for 20 mins followed by substrate addition and measured every minute for 10 mins by DTNB-reagent based Ellman's method. In general terms: DTNB colorimetry detects thiols as they appear.
T1 sequence (P81908 whole entry): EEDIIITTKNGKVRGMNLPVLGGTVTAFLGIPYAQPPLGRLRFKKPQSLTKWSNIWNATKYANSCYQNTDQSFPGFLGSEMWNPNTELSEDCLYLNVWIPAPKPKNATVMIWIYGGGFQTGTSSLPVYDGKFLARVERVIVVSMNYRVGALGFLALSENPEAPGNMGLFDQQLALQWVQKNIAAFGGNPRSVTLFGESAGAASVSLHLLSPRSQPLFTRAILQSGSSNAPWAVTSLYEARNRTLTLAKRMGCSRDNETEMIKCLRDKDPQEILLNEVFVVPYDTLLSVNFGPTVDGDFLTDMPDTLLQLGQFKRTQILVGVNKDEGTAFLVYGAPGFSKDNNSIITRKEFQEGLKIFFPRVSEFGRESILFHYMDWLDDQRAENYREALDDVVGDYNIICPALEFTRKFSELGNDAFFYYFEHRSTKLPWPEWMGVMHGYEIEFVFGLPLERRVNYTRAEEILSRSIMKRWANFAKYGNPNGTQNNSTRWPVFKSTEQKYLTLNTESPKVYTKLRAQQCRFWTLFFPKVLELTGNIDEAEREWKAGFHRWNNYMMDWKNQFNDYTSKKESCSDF
Series [3] addresses T1, Cholinesterase. Kind of series: Mixed type inhibition of equine serum BChE assessed as decrease in Vmax and increase in Km using varying level of S-butyrylthiocholine iodide as substrate preincubated for 20 mins followed by substrate addition and measured every minute for 10 mins by Lineweaver-Burk plot analysis.
For series [4], the target named is T2, Acetylcholinesterase (Homo sapiens, UniProt P22303). In words: Non-competitive inhibition of recombinant human AChE assessed as decrease in Vmax with constant Km using varying level of acetylthiocholine iodide as substrate preincubated for 20 mins followed by substrate addition and measured every minute for 10 mins by Lineweaver-Burk plot analysis.
T2 sequence (P22303 whole entry, the tested form may be a part): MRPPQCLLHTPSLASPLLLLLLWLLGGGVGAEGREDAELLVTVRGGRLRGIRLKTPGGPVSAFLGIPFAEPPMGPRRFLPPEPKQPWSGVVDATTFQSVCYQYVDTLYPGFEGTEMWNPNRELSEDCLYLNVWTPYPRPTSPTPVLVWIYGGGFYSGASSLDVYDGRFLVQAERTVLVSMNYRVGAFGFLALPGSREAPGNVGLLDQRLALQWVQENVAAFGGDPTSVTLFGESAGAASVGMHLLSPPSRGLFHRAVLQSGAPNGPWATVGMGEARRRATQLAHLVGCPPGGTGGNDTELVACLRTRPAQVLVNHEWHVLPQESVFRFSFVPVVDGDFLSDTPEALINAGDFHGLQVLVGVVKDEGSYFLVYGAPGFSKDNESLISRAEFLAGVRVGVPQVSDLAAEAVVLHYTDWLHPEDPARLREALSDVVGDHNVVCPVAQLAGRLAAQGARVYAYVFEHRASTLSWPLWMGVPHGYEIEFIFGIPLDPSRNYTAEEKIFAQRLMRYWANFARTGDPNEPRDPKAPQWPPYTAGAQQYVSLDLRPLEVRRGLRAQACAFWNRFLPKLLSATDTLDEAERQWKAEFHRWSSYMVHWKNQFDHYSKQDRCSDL
The next series is filed under the species Rattus norvegicus. In words: Inhibition of rat self-induced Amyloid beta (1 to 42 residues) aggregation at 10 uM incubated for 24 hrs by thioflavin-T fluorescence assay relative to control.
For series [5], the target named is T2, Acetylcholinesterase. In words: Inhibition of recombinant human AChE.
A short description of series [6]: Effective permeability of compound by PAMPA-BBB assay. The format is ADME. Particulars: read-out: Peff. A general note: In PAMPA a lipid-coated filter parts donor from acceptor wells.

Chain of Acetylcholinesterase (Electrophorus electricus, UniProt O42275) (O42275 whole entry): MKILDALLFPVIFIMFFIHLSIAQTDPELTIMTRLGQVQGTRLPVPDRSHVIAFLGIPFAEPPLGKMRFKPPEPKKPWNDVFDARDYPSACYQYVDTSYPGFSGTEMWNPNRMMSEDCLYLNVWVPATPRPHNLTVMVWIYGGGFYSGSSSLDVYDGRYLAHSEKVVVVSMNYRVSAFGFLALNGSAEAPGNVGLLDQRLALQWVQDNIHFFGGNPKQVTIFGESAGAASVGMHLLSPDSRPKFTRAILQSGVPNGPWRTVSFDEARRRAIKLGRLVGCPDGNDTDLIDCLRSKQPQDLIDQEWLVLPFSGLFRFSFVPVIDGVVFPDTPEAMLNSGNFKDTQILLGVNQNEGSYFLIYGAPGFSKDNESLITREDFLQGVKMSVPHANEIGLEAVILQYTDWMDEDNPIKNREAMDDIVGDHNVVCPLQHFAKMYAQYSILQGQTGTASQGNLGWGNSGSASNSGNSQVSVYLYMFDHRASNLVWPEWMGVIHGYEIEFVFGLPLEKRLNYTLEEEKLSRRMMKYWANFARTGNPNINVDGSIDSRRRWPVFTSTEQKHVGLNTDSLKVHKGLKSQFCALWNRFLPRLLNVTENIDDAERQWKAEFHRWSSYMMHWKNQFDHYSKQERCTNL

For the compound `COc1ccc2cc(C(=O)NCCc3cc[n+](Cc4ccccc4F)cc3)ccc2c1`, the concentration for half-maximal inhibition (IC50) – broadly, the point on the concentration scale where inhibition reaches its midpoint – was 280 nM against Acetylcholinesterase [1] and > 1000 nM at Cholinesterase [2].
In the same order, the values of `O=C(Nc1cc[n+](Cc2ccccc2)cc1)c1ccc(OCc2ccccc2)cc1` are 360 nM and > 1000 nM.
In the same order, the values of `COc1ccc2cc(C(=O)Nc3cc[n+](Cc4ccccc4C)cc3)ccc2c1` are 435 nM and > 1000 nM.
As for `COc1ccc2cc(C(=O)NCCc3cc[n+](Cc4ccc(F)cc4)cc3)ccc2c1`, the IC50 against Acetylcholinesterase [1] is 740 nM; on Cholinesterase [2] it was > 1000 nM.
In the case of `COc1ccc(C(=O)Nc2cc[n+](Cc3ccccc3)cc2)cc1`, 216 nM corresponded to half-maximal inhibition against Acetylcholinesterase [1] (IC50).
In the case of `COc1ccc2cc(C(=O)Nc3cc[n+](Cc4ccccc4F)cc3)ccc2c1`, the half-inhibitory concentration (IC50) at Acetylcholinesterase [1] was 210 nM; at Cholinesterase [2], > 1000 nM.
On to `CC(C)c1ccc(C(=O)Nc2cc[n+](Cc3ccccc3)cc2)cc1`, for which, on Acetylcholinesterase [1], the IC50 was 852 nM.
On to `COc1ccc2cc(C(=O)Nc3cc[n+](Cc4ccccc4)cc3)ccc2c1`, for which the IC50 is 218 nM at Acetylcholinesterase [1] and 1590 nM against Cholinesterase [2].
As to `COc1ccc2cc(C(=O)NCCC3CCN(Cc4ccccc4)CC3)ccc2c1`, the values for the Ki on Cholinesterase [3] and on Acetylcholinesterase [4] were 150 nM and 210 nM, respectively. Besides, the inhibition (as a rule, the change of the read-out against control, counted positive when it falls) in the series listed under Rattus norvegicus is 25%. Besides, the concentration for half-maximal inhibition (IC50) at Acetylcholinesterase [5] turned out to be 170 nM. Further, the Papp in series [6] worked out at 6.9 ×10⁻⁶ cm/s.
On to `COc1ccc2cc(C(=O)NCCc3cc[n+](Cc4ccccc4[N+](=O)[O-])cc3)ccc2c1`, for which the figures for the IC50 against Acetylcholinesterase [1] and at Cholinesterase [2] were 280 nM and > 1000 nM, respectively.
For `COc1ccc2cc(C(=O)NCCc3cc[n+](Cc4ccccc4C)cc3)ccc2c1`, in that order: 1080 nM and > 1000 nM.
In the same order, the values of `COc1ccc2cc(C(=O)Nc3cc[n+](Cc4ccc(F)cc4)cc3)ccc2c1` are 210 nM and > 1000 nM.
Turning to `COc1ccc(C(=O)Nc2cc[n+](Cc3ccccc3)cc2)cc1OC`, half-maximal inhibition at Acetylcholinesterase [1] (IC50) was put at 420 nM.
On the same count and under the same terms, for `N#Cc1ccc(C(=O)Nc2cc[n+](Cc3ccccc3)cc2)cc1` the value was 469 nM.
Regarding `COc1ccc2cc(C(=O)NCCc3cc[n+](Cc4ccccc4)cc3)ccc2c1.[Br-]`, the IC50 on Acetylcholinesterase [1] came to 770 nM; at Cholinesterase [2], 680 nM. Moreover, the Papp in series [6] came out at 1.3 ×10⁻⁶ cm/s.
With `COc1ccc2cc(C(=O)NCCc3cc[n+](Cc4ccc([N+](=O)[O-])cc4)cc3)ccc2c1`, the IC50 was 740 nM on Acetylcholinesterase [1] and > 1000 nM against Cholinesterase [2].
In the same order, the values of `COc1ccc2cc(C(=O)Nc3cc[n+](Cc4ccc(Cl)cc4)cc3)ccc2c1` are 900 nM and > 1000 nM.
For `COc1ccc2cc(C(=O)NCCc3cc[n+](Cc4ccccc4Cl)cc3)ccc2c1`, in that order: 500 nM and 830 nM.
For `COc1ccc2cc(C(=O)Nc3cc[n+](Cc4ccccc4[N+](=O)[O-])cc3)ccc2c1`, in that order: 480 nM and > 1000 nM.
For the compound `O=C(Nc1cc[n+](Cc2ccccc2)cc1)c1ccc(-c2ccccc2)cc1`, the IC50 at Acetylcholinesterase [1] is 770 nM; against Cholinesterase [2] it was > 1000 nM.
For `COc1ccc2cc(C(=O)NCCc3cc[n+](Cc4cccc(Cl)c4)cc3)ccc2c1`, in that order: 610 nM and > 1000 nM.
Regarding `COc1ccc2cc(C(=O)Nc3cc[n+](Cc4ccccc4Cl)cc3)ccc2c1`, the IC50 was 340 nM at Acetylcholinesterase [1] and > 1000 nM against Cholinesterase [2].
In the same order, the values of `CCOc1ccc(C(=O)Nc2cc[n+](Cc3ccccc3)cc2)cc1` are 201 nM and 12700 nM.
As for `COc1cc(OC)cc(C(=O)Nc2cc[n+](Cc3ccccc3)cc2)c1`, the concentration for half-maximal inhibition (IC50) at Acetylcholinesterase [1] is 202 nM.
Same read-out and setting: the value for `O=C(Nc1cc[n+](Cc2ccccc2)cc1)c1ccc2cc(Br)ccc2c1` was 1440 nM.

Source of the values: ChEMBL document CHEMBL4706581, “Discovery of methoxy-naphthyl linked N-(1-benzylpiperidine) benzamide as a blood-brain permeable dual inhibitor of acetylcholinesterase and butyrylcholinesterase” (Eur J Med Chem, 2020).
